Reference: ChEMBL document CHEMBL2040815, “Sentulic acid: a cytotoxic ring A-seco triterpenoid from Sandoricum koetjape Merr” (Bioorg Med Chem Lett, 2012)
The source made the active and inactive calls. The calls are words filed in the database; no cut-off is given here.

Experiments:
[1] = system: HL-60; assay: Cytotoxicity against human HL60 cells after 48 hrs by MTT assay; format: functional, cell-based; conditions: HL-60, 48 h
[2] = system: HL-60; assay: Cytotoxicity against human HL60 cells assessed as inhibition of cell proliferation at 25 uM after 24 to 72 hrs by trypan blue dye exclusion test relative to control; format: functional
[3] = system: HL-60; assay: Cytotoxicity against human HL60 cells assessed as decrease in cell viability after 24 to 72 hrs by trypan blue dye exclusion test; format: functional, cell-based
[4] = system: HL-60; assay: Cytotoxicity against human HL60 cells assessed as inhibition of cell proliferation at 100 uM after 24 to 72 hrs by trypan blue dye exclusion test; format: functional, cell-based
[5] = system: HL-60; assay: Induction of apoptosis in human HL60 cells assessed as fragmentation of the nuclei at 50 to 100 uM after 24 hrs by Hoechst 33342 staining; format: functional, cell-based
[6] = system: HL-60; assay: Induction of apoptosis in human HL60 cells assessed as DNA fragmentation laddering at 100 uM by agarose gel electrophoresis; format: functional, cell-based
[7] = system: HL-60; assay: Induction of apoptosis in human HL60 cells assessed as condensation of chromatin at 50 to 100 uM after 24 hrs by Hoechst 33342 staining; format: functional, cell-based

Row | SMILES | IC50 [1] | inhibition at 25 µM [2] | Activity [3] | inhibition [4] | Activity [5] | Activity [6] | Activity [7]
1 | CC1(C)CC[C@]2(C)CC[C@]3(C(=O)O)C(=CC[C@@H]4[C@@]5(C)CCC(=O)C(C)(C)[C@@H]5CC[C@]43C)[C@@H]2C1 | 27.4 µM | 50% | Dose-dependent effect | Active | Active | Active | Active
2 | C=C(C)[C@@H]1CC[C@]2(C)[C@H](CC=C3[C@@H]4CC(C)(C)CC[C@]4(C)CC[C@]32C(=O)O)[C@@]1(C)CCC(=O)O [SENTULIC ACID] | 37 µM | 50% | Dose-dependent effect | Active | Active | Active | Active
